Values after ≈ are worked out from the molar mass of the structure shown.
Experiments:
E. coli KC-14 [1] = assay: MIC of the infecting organism (Experiment 2); format: cell-based; conditions: Escherichia coli, KC14
Experimental: (§1) Experimental infection was caused by inoculating male mice intraperitoneally with each organism. Each of the test compounds was administered orally to the mice, one hour after the inoculation. The therapeutic effect of each compounds was judged by using a 50% effective dose (ED50) from the survival rate on day 7 after injection by the Probit method as described in Proc. Soc. Exp. Biol. Med., Vol. 57, p.261-264, 1944. The Minimum inhibitory concentrations (MIC) were also measured.

S. aureus Smith [2] = assay: MIC of the infecting organism (Experiment 2); format: cell-based; conditions: Staphylococcus aureus
Experimental: as §1

S. pneumoniae Type III = assay: Protective effect against experimental infection in mice; format: in vivo; conditions: oral, 1 h after i.p. inoculation of 6.0 × 10^2 cells/mouse [12 LD50]; survival day 7; 95% confidence limit
Experimental: as §1
(§2) (The overnight cultures of test organisms with an asterisk (*) were
(§3) diluted with 50% mucin and 0.5 ml of each was injected intraperitoneally
(§4) into mice. A double asterisk (**) means a 95% confidence limit. MRSA mean
(§5) methycillinresistant Staphylococcus aureus.)

E. coli KC-14 [3] = assay: as above; format: in vivo; conditions: oral, 1 h after i.p. inoculation of 5.75 × 10^4 cells/mouse [488 LD50] with mucin; survival day 7; 95% confidence limit
Experimental: as §1, §2, §3, §4, §5

S. pyogenes C-203 = assay: as above; format: in vivo; conditions: oral, 1 h after i.p. inoculation of 4.42 × 10^4 cells/mouse [680 LD50]; survival day 7; 95% confidence limit
Experimental: as §1, §2, §3, §4, §5

S. aureus 109(MRSA) = assay: as above; format: in vivo; conditions: oral, 1 h after i.p. inoculation of 4.93 × 10^8 cells/mouse [5.7 LD50] with mucin; survival day 7; 95% confidence limit
Experimental: as §1, §2, §3, §4, §5

S. aureus Smith [4] = assay: as above; format: in vivo; conditions: oral, 1 h after i.p. inoculation of 2.13 × 10^6 cells/mouse [792 LD50] with mucin; survival day 7; 95% confidence limit
Experimental: as §1, §2, §3, §4, §5

[5] = system: Staphylococcus epidermidis ATCC 12228; assay: Antibacterial activity in vitro (MIC); format: cell-based; conditions: ATCC12228
Experimental: (§6) The antibacterial activities in vitro (minimum inhibitory concentration, MIC, μg/ml) of the test compounds were measured according to the standard method of the Japanese Chemotherapy Society (Chemotherapy, Vol. 23, p.1126, 1974).
(§7) (Inoculum size: 10^6 cells/ml, Organisms with asterisk (*) were
(§8) cultivated in a 10% horse bloodadded medium.)

[6] = system: Serratia marcescens IFO 12648; assay: Antibacterial activity in vitro (MIC); format: cell-based; conditions: IFO12648
Experimental: as §6, §7, §8

[7] = system: Pseudomonas aeruginosa U-31; assay: Antibacterial activity in vitro (MIC); format: cell-based; conditions: U31
Experimental: as §6, §7, §8

[8] = system: Streptococcus lactis IFO 12546; assay: Antibacterial activity in vitro (MIC); format: cell-based; conditions: Lactococcus lactis, IFO12546
Experimental: as §6, §7, §8

[9] = system: Pediococcus damnosus IFO 3895; assay: Antibacterial activity in vitro (MIC); format: cell-based; conditions: IFO3895
Experimental: as §6, §7, §8

Escherichia coli T-7 = assay: Antibacterial activity in vitro (MIC); format: cell-based; conditions: T7, inoculum 10^6 cells/ml
Experimental: as §6, §7, §8

Klebsiella pneumoniae DT = assay: Antibacterial activity in vitro (MIC); format: cell-based
Experimental: as §6, §7, §8

Shigella sonnei EW-33 = assay: Antibacterial activity in vitro (MIC); format: cell-based; conditions: EW33, inoculum 10^6 cells/ml
Experimental: as §6, §7, §8

Escherichia coli O-111 = assay: Antibacterial activity in vitro (MIC); format: cell-based; conditions: O111, inoculum 10^6 cells/ml
Experimental: as §6, §7, §8

[10] = system: Proteus mirabilis IFO 3849; assay: Antibacterial activity in vitro (MIC); format: cell-based; conditions: IFO3849
Experimental: as §6, §7, §8

[11] = system: Corynebacterium diphtheriae Tronto; assay: Antibacterial activity in vitro (MIC); format: cell-based
Experimental: as §6, §7, §8

[12] = system: Morganella morganii IFO 3168; assay: Antibacterial activity in vitro (MIC); format: cell-based; conditions: IFO3168
Experimental: as §6, §7, §8

Shigella flexneri EW-10 = assay: Antibacterial activity in vitro (MIC); format: cell-based; conditions: EW10, inoculum 10^6 cells/ml
Experimental: as §6, §7, §8

[13] = system: Xanthomonas maltophilia IFO 12690; assay: Antibacterial activity in vitro (MIC); format: cell-based; conditions: Stenotrophomonas maltophilia, IFO12690; inoculum 10^6 cells/ml
Experimental: as §6, §7, §8

[14] = system: Staphylococcus aureus 1840; assay: Antibacterial activity in vitro (MIC); format: cell-based
Experimental: as §6, §7, §8

[15] = system: Pseudomonas putida IFO 12996; assay: Antibacterial activity in vitro (MIC); format: cell-based; conditions: IFO12996
Experimental: as §6, §7, §8

[16] = system: Streptococcus sp. IFO 3535; assay: Antibacterial activity in vitro (MIC); format: cell-based; conditions: IFO3535
Experimental: as §6, §7, §8

[17] = system: Pseudomonas aeruginosa IFO 12582; assay: Antibacterial activity in vitro (MIC); format: cell-based; conditions: IFO12582
Experimental: as §6, §7, §8

[18] = system: Staphylococcus aureus FDA 209P; assay: Antibacterial activity in vitro (MIC); format: cell-based; conditions: FDA209P
Experimental: as §6, §7, §8

[19] = system: Escherichia coli NIHJ JC-2; assay: Antibacterial activity in vitro (MIC); format: cell-based; conditions: NIHJJC2
Experimental: as §6, §7, §8

[20] = system: Bacillus subtilis PCT 219; assay: Antibacterial activity in vitro (MIC); format: cell-based; conditions: PCT219
Experimental: as §6, §7, §8

[21] = system: Proteus vulgaris IFO 3988; assay: Antibacterial activity in vitro (MIC); format: cell-based; conditions: IFO3988
Experimental: as §6, §7, §8

[22] = system: Citrobacter freundii IFO 12681; assay: Antibacterial activity in vitro (MIC); format: cell-based; conditions: IFO12681, inoculum 10^6 cells/ml
Experimental: as §6, §7, §8

[23] = system: Acinetobacter calcoaceticus ATCC 13006; assay: Antibacterial activity in vitro (MIC); format: cell-based; conditions: ATCC13006
Experimental: as §6, §7, §8

[24] = system: Shigella typhosa Boxhill-58; assay: Antibacterial activity in vitro (MIC); format: cell-based
Experimental: as §6, §7, §8

[25] = system: Streptococcus viridans America; assay: Antibacterial activity in vitro (MIC); format: cell-based
Experimental: as §6, §7, §8

[26] = system: Staphylococcus aureus FDA 209P*; assay: Antibacterial activity in vitro (MIC), horse blood medium; format: cell-based; conditions: FDA209P
Experimental: as §6, §7, §8

O=C(O)c1cn(C2CC2)c2cc(N3CCNCC3)c(F)cc2c1=O [CPFX, 1-cyclopropyl-6-fluoro-1,4-dihydro-7-(1-piperazinyl)-4-oxoquinoline-3-carboxylic acid]
MIC (E. coli KC-14 [1]): ≤ 0.006 µg/mL
MIC (S. aureus Smith [2]): 0.1 µg/mL
ED50 (S. pneumoniae Type III): > 2 mg/mouse
ED50 (E. coli KC-14 [3]): 0.011(0.008-0.015) mg/mouse
ED50 (S. pyogenes C-203): > 2 mg/mouse
ED50 (S. aureus 109(MRSA)): 1.163(0.460-1.660) mg/mouse
ED50 (S. aureus Smith [4]): 0.325(0.232-0.453) mg/mouse
MIC [5]: 0.2 µg/mL (≈ 0.604 µM)
MIC [6]: 0.1 µg/mL (≈ 0.302 µM)
MIC [7]: 0.2 µg/mL (≈ 0.604 µM)
MIC [8]: 3.13 µg/mL (≈ 9.45 µM)
MIC [9]: 0.1 µg/mL (≈ 0.302 µM)
MIC (Escherichia coli T-7): 0.012 µg/mL (≈ 0.0362 µM)
MIC (Klebsiella pneumoniae DT): 0.025 µg/mL (≈ 0.0754 µM)
MIC (Shigella sonnei EW-33): ≤ 0.006 µg/mL
MIC (Escherichia coli O-111): 0.012 µg/mL (≈ 0.0362 µM)
MIC [10]: 0.1 µg/mL (≈ 0.302 µM)
MIC [11]: 0.1 µg/mL (≈ 0.302 µM)
MIC [12]: 0.025 µg/mL (≈ 0.0754 µM)
MIC (Shigella flexneri EW-10): 0.012 µg/mL (≈ 0.0362 µM)
MIC [13]: 0.05 µg/mL (≈ 0.151 µM)
MIC [14]: 3.13 µg/mL (≈ 9.45 µM)
MIC [15]: 0.1 µg/mL (≈ 0.302 µM)
MIC [16]: 3.13 µg/mL (≈ 9.45 µM)
MIC [17]: 0.2 µg/mL (≈ 0.604 µM)
MIC [18]: 0.2 µg/mL (≈ 0.604 µM)
MIC [19]: 0.025 µg/mL (≈ 0.0754 µM)
MIC [20]: 0.025 µg/mL (≈ 0.0754 µM)
MIC [21]: 0.05 µg/mL (≈ 0.151 µM)
MIC [22]: 0.012 µg/mL (≈ 0.0362 µM)
MIC [23]: 0.1 µg/mL (≈ 0.302 µM)
MIC [24]: ≤ 0.006 µg/mL
MIC [25]: 3.13 µg/mL (≈ 9.45 µM)
MIC [26]: 0.2 µg/mL (≈ 0.604 µM)
